In the NIST ThermoML archive (doi:10.1021/je050538q):

Columns and labels:
[1] = Liquid
[2] = refractive index (Na D-line) (dimensionless); settings: 298.15 K; 101.33 kPa; Liquid
[3] = refractive index (Na D-line) (dimensionless); xn = mol fraction of the nth substance listed; settings: 298.15 K, 101 kPa, Liquid
[4] = xn = mol fraction of the nth substance listed; settings: 298.15 K, 101 kPa, Liquid

CCC(C)(C)O [2-methylbutan-2-ol]
[1], 298.15 K, 101 kPa
Settings | mass density [kg/m3] | viscosity [mPa·s]
– | 804.98 | 3.645

Settings | viscosity [mPa·s]
[1], 303.15 K, 101.33 kPa, Capillary tube (Ostwald / Ubbelohde) method | 2.81

Settings | refractive index
[2] | 1.4025

CCC(C)(C)O [2-methylbutan-2-ol] + CC(=O)N(C)C
Settings | mass density, [4] [kg/m3] | refractive index, [3] | viscosity, [4] [mPa·s]
x2 = 0 | 804.98 | 1.4025 | 3.645
x2 = 0.0112 | 806.65 | 1.4031 | 3.6
x2 = 0.0284 | 809.1 | 1.404 | 3.533
x2 = 0.0423 | 810.93 | 1.4046 | 3.48
x2 = 0.0681 | 814.29 | 1.4058 | 3.381
x2 = 0.1023 | 818.47 | 1.4072 | 3.254
x2 = 0.1613 | 825.31 | 1.4095 | 3.041
x2 = 0.2112 | 830.81 | 1.4113 | 2.87
x2 = 0.253 | 835.39 | 1.4128 | 2.731
x2 = 0.2912 | 839.58 | 1.4141 | 2.608
x2 = 0.3366 | 844.6 | 1.4156 | 2.467
x2 = 0.3844 | 850.11 | 1.4171 | 2.325
x2 = 0.4203 | 854.29 | 1.4182 | 2.221
x2 = 0.4743 | 860.87 | 1.4198 | 2.071
x2 = 0.5864 | 875.18 | 1.423 | 1.78
x2 = 0.6721 | 886.7 | 1.4254 | 1.578
x2 = 0.7474 | 897.47 | 1.4276 | 1.413
x2 = 0.8321 | 910.06 | 1.4302 | 1.242
x2 = 0.9168 | 923.22 | 1.4329 | 1.086
x2 = 0.954 | 929.18 | 1.4341 | 1.021

CCC(C)(C)O [2-methylbutan-2-ol] + CCOC(C)=O
Settings | mass density, [4] [kg/m3] | refractive index, [3] | viscosity, [4] [mPa·s]
x1 = 0.0279 | 891.15 | 1.3711 | 0.464
x1 = 0.0573 | 887.59 | 1.3723 | 0.508
x1 = 0.096 | 883.06 | 1.3739 | 0.567
x1 = 0.1672 | 874.97 | 1.3767 | 0.691
x1 = 0.2475 | 866.39 | 1.3798 | 0.85
x1 = 0.3322 | 857.83 | 1.383 | 1.041
x1 = 0.4168 | 849.81 | 1.3861 | 1.261
x1 = 0.4994 | 842.59 | 1.3891 | 1.503
x1 = 0.5831 | 835.67 | 1.3919 | 1.776
x1 = 0.6658 | 829.16 | 1.3946 | 2.078
x1 = 0.7486 | 822.86 | 1.397 | 2.412
x1 = 0.8336 | 816.62 | 1.3993 | 2.791
x1 = 0.9149 | 810.81 | 1.4011 | 3.188
x1 = 0.9445 | 808.73 | 1.4017 | 3.344
x1 = 0.9712 | 806.91 | 1.4021 | 3.486
x1 = 1 | 804.98 | 1.4025 | 3.645

CC(=O)N(C)C [N,N-dimethylethanamide]
[1], 298.15 K, 101 kPa
Settings | mass density [kg/m3] | viscosity [mPa·s]
– | 936.7 | 0.945

Settings | refractive index
[2] | 1.4357

CC(=O)N(C)C [N,N-dimethylethanamide] + CCC(C)(C)O
x1 = 1
Settings | mass density [kg/m3] | refractive index | viscosity [mPa·s]
[3] | – | 1.4357 | –
[4] | 936.7 | – | 0.945

CC(=O)N(C)C [N,N-dimethylethanamide] + CCOC(C)=O
Settings | mass density, [4] [kg/m3] | refractive index, [3] | viscosity, [4] [mPa·s]
x1 = 0.0392 | 896.84 | 1.3731 | 0.442
x1 = 0.0791 | 898.95 | 1.3763 | 0.458
x1 = 0.156 | 902.75 | 1.3824 | 0.49
x1 = 0.2331 | 906.43 | 1.3883 | 0.523
x1 = 0.3109 | 909.97 | 1.3942 | 0.558
x1 = 0.3875 | 913.34 | 1.3999 | 0.595
x1 = 0.4646 | 916.63 | 1.4054 | 0.634
x1 = 0.541 | 919.8 | 1.4106 | 0.674
x1 = 0.6137 | 922.68 | 1.4153 | 0.713
x1 = 0.6931 | 925.71 | 1.4201 | 0.757
x1 = 0.7718 | 928.62 | 1.4246 | 0.803
x1 = 0.8145 | 930.15 | 1.4269 | 0.828
x1 = 0.8896 | 932.81 | 1.4307 | 0.874
x1 = 0.9558 | 935.14 | 1.4338 | 0.916
x1 = 1 | 936.7 | 1.4357 | 0.945

CCOC(C)=O [ethyl acetate]
[1], 298.15 K, 101 kPa
Settings | mass density [kg/m3] | viscosity [mPa·s]
– | 894.6 | 0.426

Settings | refractive index
[2] | 1.3699

CCOC(C)=O [ethyl acetate] + CC(=O)N(C)C
x2 = 0
Settings | mass density [kg/m3] | refractive index | viscosity [mPa·s]
[3] | – | 1.3699 | –
[4] | 894.6 | – | 0.426

CCOC(C)=O [ethyl acetate] + CCC(C)(C)O
x2 = 0
Settings | mass density [kg/m3] | refractive index | viscosity [mPa·s]
[3] | – | 1.3699 | –
[4] | 894.6 | – | 0.426
